Laboratory results reported in patent US20190322676A1, “CERAMIDE GALACTOSYLTRANSFERASE INHIBITORS FOR THE TREATMENT OF DISEASE” (BioMarin Pharmaceutical Inc., priority 2016, published 2019).
Counter-ions that a name gives are not always drawn.

What follows are compounds tested against T1, human CGT (ceramide galactosyltransferase), CHO/CGT lysate (Homo sapiens, UniProt Q16880) (assay: CGT enzyme assay, RapidFire/MS/MS readout (Table 1 ranges with one asterisk *)). Conditions: RapidFire method (range with one asterisk *).
T1 construct: Full-length human CGT cDNA was cloned into the BamH1/Xho1 site of pcDNA3.1 (+); expressed in transfected cells; host or cells: Chinese hamster ovary (CHO) cells; lysate prepared with M-PER
T1 sequence (Q16880 21-541): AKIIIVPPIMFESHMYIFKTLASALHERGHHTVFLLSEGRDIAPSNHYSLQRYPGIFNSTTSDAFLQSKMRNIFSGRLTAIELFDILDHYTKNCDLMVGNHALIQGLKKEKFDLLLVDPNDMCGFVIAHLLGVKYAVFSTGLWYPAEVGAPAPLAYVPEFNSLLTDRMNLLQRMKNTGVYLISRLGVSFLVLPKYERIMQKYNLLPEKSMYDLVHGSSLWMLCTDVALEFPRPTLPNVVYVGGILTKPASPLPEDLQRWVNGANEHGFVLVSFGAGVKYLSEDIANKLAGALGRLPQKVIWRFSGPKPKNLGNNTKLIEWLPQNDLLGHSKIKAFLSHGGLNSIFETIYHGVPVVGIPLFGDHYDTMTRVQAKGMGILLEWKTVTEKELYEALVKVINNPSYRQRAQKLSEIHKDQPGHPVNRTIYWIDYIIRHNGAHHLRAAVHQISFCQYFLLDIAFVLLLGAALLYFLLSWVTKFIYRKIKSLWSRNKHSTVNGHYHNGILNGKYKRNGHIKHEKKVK
Assay type: biochemical
In short: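 Lysate (4 μg) of CHO cells transfected with full-length human CGT incubated 1 h at 37 °C with compound (0.001–50 μM) in pH 7.2 HEPES buffer with 10 μM C6-NBD-dihydro-ceramide, 17.5 μM UDP-galactose, Mg2+/Mn2+, CHAPS, BSA, 0.5% DMSO; ** set also contained 0.01% Tween 80. Product quantified by RapidFire/MS/MS, normalized to internal standard; IC50 from sigmoidal variable-slope fits.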

Structure (SMILES)	IC50 [µM]
NC1CC2CCC(C1)N2C(=O)[C@@H](NS(=O)(=O)c1ccc2cc(OC3CCCC3)ccc2c1)C(F)(F)c1ccc(I)cc1 (stereo partly drawn) [Compound 42-1, N-((2R)-3-(3-amino-8-azabicyclo[3.2.1]octan-8-yl)-1,1-difluoro-1-(4-iodophenyl)-3-oxopropan-2-yl)-6-(cyclopentyloxy)naphthalene-2-sulfonamide trifluoroacetate]	< 1
NC1CCN(C(=O)[C@@H](NS(=O)(=O)c2ccc3c(cnn3CC3CCCC3)c2)C(F)(F)c2ccc(-c3ccc(Cl)cc3)cc2)CC1 [Compound 95-1, (R)—N-(3-(4-aminopiperidin-1-yl)-1-(4′-chloro-[1,1′-biphenyl]-4-yl)-1,1-difluoro-3-oxopropan-2-yl)-1-(cyclopentylmethyl)-1H-indazole-5-sulfonamide]	< 1
NC1CC2CCC(C1)N2C(=O)[C@@H](NS(=O)(=O)c1ccc2cc(OC3CCCC3)ccc2c1)C(F)(F)c1ccc(-c2ccc(F)cc2)cc1 (stereo partly drawn) [Compound 56-1, N-((2R)-3-(3-amino-8-azabicyclo[3.2.1]octan-8-yl)-1,1-difluoro-1-(4′-fluoro-[1,1′-biphenyl]-4-yl)-3-oxopropan-2-yl)-6-(cyclopentyloxy)naphthalene-2-sulfonamide trifluoroacetate]	< 1
CCCCOc1ccc(C(F)(F)[C@H](NS(=O)(=O)c2ccc3cc(OC4CCCC4)ccc3c2)C(=O)N2CCC(N)CC2)cc1 [Compound 80-1, (R)—N-(3-(4-aminopiperidin-1-yl)-1-(4-butoxyphenyl)-1,1-difluoro-3-oxopropan-2-yl)-6-(cyclopentyloxy)naphthalene-2-sulfonamide]	< 1
N[C@@H]1CCN(C(=O)[C@H](NS(=O)(=O)c2ccc3cc(OC4CCCC4)ccc3c2)C(F)(F)c2ccc(Br)cc2)C1 [Compound 139-2, N—((S)-3-((R)-3-aminopyrrolidin-1l-yl)-1-(4-bromophenyl)-1,1-difluoro-3-oxopropan-2-yl)-6-(cyclopentyloxy)naphthalene-2-sulfonamide]	1 to 10
CN([C@H](C(=O)N1C2CCC1CC(N)C2)C(F)(F)c1ccc(Oc2ccccc2)cc1)S(=O)(=O)c1ccc2cc(OC3CCCC3)ccc2c1 (stereo partly drawn) [Compound 87-1, N-((2R)-3-(3-amino-8-azabicyclo[3.2.1]octan-8-yl)-1,1-difluoro-3-oxo-1-(4-phenoxyphenyl)propan-2-yl)-6-(cyclopentyloxy)-N-methylnaphthalene-2-sulfonamide trifluoroacetate]	< 1
N[C@@H]1CCN(C(=O)[C@@H](NS(=O)(=O)c2ccc3cc(OC4CCCC4)ccc3c2)C(F)(F)c2ccc(Br)cc2)C1 [Compound 139-1, N—((R)-3-((R)-3-aminopyrrolidin-1-yl)-1-(4-bromophenyl)-1,1-difluoro-3-oxopropan-2-yl)-6-(cyclopentyloxy)naphthalene-2-sulfonamide]	< 1
CCCCOc1cc(C(F)(F)[C@H](NS(=O)(=O)c2ccc3cc(OC4CCCC4)ccc3c2)C(=O)N2CCC(N)CC2)ccc1Cl [Compound 126-1, (R)—N-(3-(4-aminopiperidin-1-yl)-1-(3-butoxy-4-chlorophenyl)-1,1-difluoro-3-oxopropan-2-yl)-6-(cyclopentyloxy)naphthalene-2-sulfonamide]	< 1
NC1CCN(C(=O)[C@H](NC(=O)[C@@H](O)c2ccc(OCC3CCCCC3)cc2)C(F)(F)c2ccc(-c3ccc(Cl)cc3)cc2)CC1 [Compound 141-2, (S)—N—((S)-3-(4-aminopiperidin-1-yl)-1-(4′-chloro-[1,1′-biphenyl]-4-yl)-1,1-difluoro-3-oxopropan-2-yl)-2-(4-(cyclohexylmethoxy)phenyl)-2-hydroxyacetamide trifluoroacetate]	10 to 30
O=C([C@@H](NS(=O)(=O)c1ccc2cc(OC3CCCC3)ccc2c1)C(F)(F)c1ccc(-c2ccc(Cl)cc2)cc1)N1CCNCC1 [Compound 137-1, (R)—N-(1-(4′-chloro-[1,1′-biphenyl]-4-yl)-1,1-difluoro-3-oxo-3-(piperazin-1-yl)propan-2-yl)-6-(cyclopentyloxy)naphthalene-2-sulfonamide trifluoroacetate]	1 to 10
NC1CC2CCC(C1)N2C(=O)[C@H](NS(=O)(=O)c1ccc2cc(OC3CCCC3)ccc2c1)C(F)(F)c1ccc(C(F)(F)F)cc1 (stereo partly drawn) [Compound 54-2, N-((2S)-3-(3-amino-8-azabicyclo[3.2.1]octan-8-yl)-1,1-difluoro-3-oxo-1-(4-(trifluoromethyl)phenyl)propan-2-yl)-6-(cyclopentyloxy) naphthalene-2-sulfonamide]	10 to 30
CC(C)Oc1ccc2cc(S(=O)(=O)N(C)[C@@H](C(=O)N3C4CCC3CC(N)C4)C(F)(F)c3ccc(Br)cc3)ccc2c1 (stereo partly drawn) [Compound 46-2, N-((2S)-3-(3-amino-8-azabicyclo[3.2.1]octan-8-yl)-1-(4-bromophenyl)-1,1-difluoro-3-oxopropan-2-yl)-6-isopropoxy-N-methylnaphthalene-2-sulfonamide trifluoroacetate]	30 to 100
NC1CCN(C(=O)[C@H](NS(=O)(=O)c2ccc3cc(OC4CCCC4)ccc3c2)C(F)(F)c2cccc(-c3ccccc3)c2)CC1 [Compound 69-2, (S)—N-(1-([1,1′-biphenyl]-3-yl)-3-(4-aminopiperidin-1-yl)-1,1-difluoro-3-oxopropan-2-yl)-6-(cyclopentyloxy)naphthalene-2-sulfonamide trifluoroacetate]	30 to 100
CCCCOc1ccc(C(F)(F)[C@@H](NS(=O)(=O)c2ccc(OCC3CCCCC3)cc2)C(=O)N2CCC(N)CC2)cc1 [Compound 81-2, (S)—N-(3-(4-aminopiperidin-1-yl)-1-(4-butoxyphenyl)-1,1-difluoro-3-oxopropan-2-yl)-4-(cyclohexylmethoxy)benzenesulfonamide trifluoroacetate]	30 to 100
NC1CC2CCC(C1)N2C(=O)[C@H](NS(=O)(=O)c1ccc2cc(OC3CCCC3)ccc2c1)C(F)(F)c1ccc(Oc2ccc(Cl)cc2)cc1 (stereo partly drawn) [Compound 121-2, N-((2S)-3-(3-amino-8-azabicyclo[3.2.1]octan-8-yl)-1-(4-(4-chlorophenoxy)phenyl)-1,1-difluoro-3-oxopropan-2-yl)-6-(cyclopentyloxy)naphthalene-2-sulfonamide]	1 to 10
O=C([C@H](NS(=O)(=O)c1ccc2cc(OC3CCCC3)ccc2c1)C(F)(F)c1ccc(-c2ccc(Cl)cc2)cc1)N1CCNCC1 [Compound 137-2, (S)—N-(1-(4′-chloro-[1,1′-biphenyl]-4-yl)-1,1-difluoro-3-oxo-3-(piperazin-1-yl)propan-2-yl)-6-(cyclopentyloxy)naphthalene-2-sulfonamide trifluoroacetate]	10 to 30
NC1CC2CCC(C1)N2C(=O)[C@@H](NC(=O)[C@@H](O)c1ccc2cc(OC3CCCC3)ccc2c1)C(F)(F)c1ccc(Br)cc1 (stereo partly drawn) [Compound 41-3, (2S)—N-((2R)-3-(3-amino-8-azabicyclo[3.2.1]octan-8-yl)-1-(4-bromophenyl)-1,1-difluoro-3-oxopropan-2-yl)-2-(6-(cyclopentyloxy)naphthalen-2-yl)-2-hydroxyacetamide trifluoroacetate]	1 to 10
COc1cc(C(F)(F)[C@H](NS(=O)(=O)c2ccc3cc(OC4CCCC4)ccc3c2)C(=O)N2C3CCC2CC(N)C3)ccc1Br (stereo partly drawn) [Compound 89-1, N-((2R)-3-(3-amino-8-azabicyclo[3.2.1]octan-8-yl)-1-(4-bromo-3-methoxyphenyl)-1,1-difluoro-3-oxopropan-2-yl)-6-(cyclopentyloxy)naphthalene-2-sulfonamide]	< 1
NC1CC2CCC(C1)N2C(=O)[C@H](NS(=O)(=O)c1ccc2cc(OC3CCCC3)ccc2c1)C(F)(F)c1ccc(Cl)s1 (stereo partly drawn) [Compound 130-2, N-((2S)-3-(3-amino-8-azabicyclo[3.2.1]octan-8-yl)-1-(5-chlorothiophen-2-yl)-1,1-difluoro-3-oxopropan-2-yl)-6-(cyclopentyloxy)naphthalene-2-sulfonamide]	10 to 30
NC1CC2CCC(C1)N2C(=O)[C@H](NS(=O)(=O)c1ccc2c(cnn2CC2CCCC2)c1)C(F)(F)c1ccc(C(F)(F)F)cc1 (stereo partly drawn) [Compound 92-2, N-((2S)-3-(3-amino-8-azabicyclo[3.2.1]octan-8-yl)-1,1-difluoro-3-oxo-1-(4-(trifluoromethyl)phenyl)propan-2-yl)-1-(cyclopentylmethyl)-1H-indazole-5-sulfonamide]	10 to 30
NC1CC2CCC(C1)N2C(=O)[C@@H](NS(=O)(=O)c1ccc2cc(OC3CCCC3)ccc2c1)C(F)(F)c1ccc(Oc2ccccc2)cc1 (stereo partly drawn) [Compound 86-1, N-((2R)-3-(3-amino-8-azabicyclo[3.2.1]octan-8-yl)-1,1-difluoro-3-oxo-1-(4-phenoxyphenyl)propan-2-yl)-6-(cyclopentyloxy)naphthalene-2-sulfonamide trifluoroacetate]	< 1
NC1CC2CCC(C1)N2C(=O)[C@@H](NS(=O)(=O)c1ccc(OCC2CCCCC2)cc1)C(F)(F)c1ccc(-c2ccc(Cl)cc2)cc1 (stereo partly drawn) [Compound 50-1, N-((2R)-3-(3-amino-8-azabicyclo[3.2.1]octan-8-yl)-1-(4′-chloro-[1,1′-biphenyl]-4-yl)-1,1-difluoro-3-oxopropan-2-yl)-4-(cyclohexylmethoxy) benzenesulfonamide trifluoroacetate]	< 1
